Where two headings read alike, the source gives them in different places.
Experiments:
[1] = tested on: 22Rv1 prostate cancer cell line; test: Antiproliferative cell assay (CellTiter-Glo), 22Rv1; format: cell-based, human; conditions: 48 h exposure, read-out: IC50 against prostate cancer cell line 22 Rv1
Description: (§1) Cell Culture Materials. The 22Rv1, DU145, LNCaP and PC3 prostate cancer cell lines were obtained from American Type Culture Collection (ATCC, Rockville, Md.). The LNCaP-AR and Hi-Myc cell lines were a kind donation by Dr. C. Sawyers (David Geffen School of Medicine, UCLA, Los Angeles, Calif.). DU145, 22Rv1, LNCaP, LNCaP-AR, and PC3 cells were grown in RPMI 1640; Hi-Myc cells were grown in Isecove's Modified Dulbecco's Medium. All media contained 10% fetal bovine serum (FBS) in the presence of 100 U/mL penicillin and 0.1 g/L streptomycin. RWPE-1 prostate cells were grown in Defined Keratinocyte Serum Free Medium (DKSFM) containing epidermal growth factor (EGF), insulin and fibroblast growth factor (FGF). Cells were incubated at 37° C. with 95% air and 5% CO2. All cells were maintained below passage 20 and used in experiments during the linear phase of growth.
(§2) Proliferation was measured utilizing the CellTiter-Glo® Luminescent Cell Viability Assay (Technical Bulletin #288, Promega Corp., Madison, Wis.). When added to cells, the assay reagent produces luminescence in the presence of ATP from viable cells. Cells were plated in 96-well plates at a density of 10,000 cells/well and incubated for 24 hours. Test samples were solubilized in DMSO by sonication, filter sterilized and diluted with media to the desired treatment concentration. Cells were treated with 100 μLcontrol media, vehicle control (DMSO<0.2% of total) or test samples and incubated for 48 h drug exposure duration at 6.25, 12.5, 25, 50 and 100 μg/mL concentrations. At the end of 48 h, plates were equilibrated at room temperature for 30 min; 100 μL of the assay reagent was added to each well and cell-lysis was induced on an orbital shaker for 2 min. Plates were incubated at room temperature for 10 min to stabilize the luminescence signal and results were read on an Orion Microplate Luminometer (Bertholds Detection Systems, Pforzheim, Germany). All plates had control wells containing medium without cells to obtain a value for background luminescence. Data are expressed as percentage of untreated cells (i.e. treatment value-blank/vehicle value-blank), mean±SE for three replications.

[2] = tested on: DU145 prostate cancer cell line; test: Antiproliferative cell assay (CellTiter-Glo), DU145; format: cell-based, human; conditions: read-out: IC50 against prostate cancer cell line DU145
Description: as §1, §2

[3] = tested on: Hi-Myc prostate cancer cell line; test: Antiproliferative cell assay (CellTiter-Glo), Hi-Myc; format: cell-based; conditions: Hi-Myc (mouse), 48 h exposure, read-out: IC50 against prostate cancer cell line HiMyc
Description: as §1, §2

[4] = tested on: LNCaP prostate cancer cell line; test: Antiproliferative cell assay (CellTiter-Glo), LNCaP; format: cell-based, human; conditions: 48 h exposure, read-out: IC50 against prostate cancer cell line LNCaP
Description: as §1, §2

[5] = tested on: LNCaP-AR prostate cancer cell line; test: Antiproliferative cell assay (CellTiter-Glo), LNCaP-AR; format: cell-based, human; conditions: 48 h exposure, read-out: IC50 against prostate cancer cell line LNCap-AR
Description: as §1, §2

[6] = tested on: PC3 prostate cancer cell line; test: Antiproliferative cell assay (CellTiter-Glo), PC3; format: cell-based, human; conditions: 48 h exposure, read-out: IC50 against prostate cancer cell line PC3
Description: as §1, §2

[7] = tested on: human colon cancer cell line HCT-116; test: Antiproliferative activity against colon cancer cells (CellTiter-Glo); format: cell-based; conditions: 100 μg/mL, 48 hrs
Description: (§3) EA and EA-metabolites (gallic and gallagic acids, urolithin B and methylated-urolithin A) were evaluated for antiproliferative activity against the human colon cancer cell line HCT-116. The cells were grown to a concentration of 10,000 cells per well in a 96 well format; and were then resuspended in medium containing vehicle control or the indicated compound: Ellagic acid, urolithin A, methyl urolithin A, or urolithin B, at a concentration of 100 μg/mL. The cells were incubated for 48 hrs, and the viability assayed by the CellTiter-Glo® Luminescent Cell Viability Assay (Technical Bulletin #288, Promega Corp., Madison, Wis.).

[8] = tested on: human pancreatic cancer cell line ASPC-1; test: Antiproliferative activity against pancreatic cancer cells (CellTiter-Glo), ASPC-1; format: cell-based; conditions: 100 μg/mL, 48 hrs
Description: as §3, with “pancreatic” for “colon”, “lines ASPC-1 and BXPC-3.” for “line HCT-116.”, “well;” for “well in a 96 well format;”, “containing the” for “containing”, “byCellTiter-Glo®” for “by the CellTiter-Glo®”

[9] = tested on: human pancreatic cancer cell line BXPC-3; test: Antiproliferative activity against pancreatic cancer cells (CellTiter-Glo), BXPC-3; format: cell-based; conditions: 100 μg/mL, 48 hrs
Description: as §3, with “pancreatic” for “colon”, “lines ASPC-1 and BXPC-3.” for “line HCT-116.”, “well;” for “well in a 96 well format;”, “containing the” for “containing”, “byCellTiter-Glo®” for “by the CellTiter-Glo®”

LNCaP cells = test: In vitro proliferation (tritiated thymidine uptake), LNCaP; format: cell-based; conditions: mean ± SE, read-out: IC50 on growth of human prostate cancer cells
Description: (§4) DU145 and LNCaP cells (ATCC, Rockville, Md.), 22Rv1 cells (gift from Pinchas Cohen), and LNCAP-AR cells (gift from Charles Sawyers) were maintained below passage 20 and used in experiments during the linear phase of growth as previously described (Seeram et al. J Nutr Biochem. 16 (2005), p. 360). EA was purchased from Sigma-Aldrich (St. Louis, Mo.). UA (3,8-dihydroxy-6H-benzo[b,d]chromen-6-one), methylated UA and dimethylated UA were synthesized in our laboratory as previously described (Ghosal et al. J Chem Res Synop. 11 (1989), p. 350). Compounds were dissolved in dimethylsulfoxide (DMSO) then added to media to achieve the final desired test concentration with a final DMSO concentration not exceeding 0.1%. Proliferation was determined by tritiated thymidine uptake as previously described. All assays were performed in triplicate.
(§5) For the cell proliferation assays, data are expressed as a percentage of untreated cells (i.e. treatment value-blank/vehicle value-blank), mean±SE for at least three separate experiments. Data were analyzed by either student's t-test or one-way ANOVA followed by Dunnett's Multiple Range test (α=0.05) with Graph Pad Prism 3.0 (Graph Pad Software Inc.) as appropriate.

LNCaP-AR cells = test: In vitro proliferation (tritiated thymidine uptake), LNCaP-AR; format: cell-based; conditions: mean ± SE, read-out: IC50 on growth of human prostate cancer cells
Description: as §4, §5

DU145 cells = test: In vitro proliferation (tritiated thymidine uptake), DU145; format: cell-based; conditions: read-out: IC50 on growth of human prostate cancer cells
Description: as §4, §5

22Rv1 cells = test: In vitro proliferation (tritiated thymidine uptake), 22RV1; format: cell-based; conditions: mean ± SE, read-out: IC50 on growth of human prostate cancer cells
Description: as §4, §5

[10] = Tissue disposition study after UA administration; format: in vivo, C57/B6 mice; conditions: for UA and UA-conjugate levels in plasma at 24 h / UA and UA-conjugate levels in tissues at 24 h: below detectable limit
Description: Pomegranate extract (PE) derived from the skin of pomegranate fruit (Punica granatum L., Paramount Farms, Lost Hills, Calif.) was standardized to 37% ETs (as punicalagins) and 3.5% free EA as reported (Seeram et al. Sep Purific Tech. 41 (2005), p. 49). PE was administered to animals in doses based on the amount of ETs in a single serving of pomegranate juice (240 ml of single strength juice, 80 mg of ETs). The equivalent dose that would be administered to a 70 kg human was calculated for a mouse of 25 g body weight to be 0.03 mg ETs. Ten times (10×) this dose was used in the animal studies (0.8 mg PE per dose per animal) to enhance our ability to detect phytochemical distribution. For studies administering UA, doses were calculated assuming complete conversion of ETs to UA. […] Both PE and UA were suspended in 50 μL PBS or 10% aqueous glucose solution for intraperitoneal or oral administration, respectively.
Male C57/B6 mice (n=156 mice, retired breeders, 7 months old, 25-30 g) from Charles River laboratories (Wilmington, Mass.) were fed AlN 93G diets and water ad libitum, and fasted 6 h prior to dosing. Mice were dosed orally or intraperitoneally with either PE (0.8 mg/mouse/dose; n=72), UA (0.3 mg/mouse/dose; n=72) or vehicle control (50 μL; n=12 mice). Blood samples were collected at 0.5, 1, 2, 4, 6 and 24 h after dosing and prostate, liver, kidney, lung, colon, intestine and brain tissues were collected and stored at −80° C. Harvested tissue (200 mg) was homogenized in methanol with 0.1% acetic acid (1 mL) and centrifuged at 3000×g for 10 min. The supernatant was dried on a SpeedVac then reconstituted with 200 μL of the HPLC mobile phase for a final injection volume of 20 μL. Xenograft tissue homogenates required acid hydrolysis prior to chromatography as reported (Gu et al. J Agric Food Chem. 53 (2005), p. 6858). HPLC-UV and HPLC-MS/MS analyses were carried out on a Waters Alliance 2690 system (Waters Corp., Milford, Mass.) an LCQ Classic Finnigan system (ThermoFinnigan, San Jose, Calif.), respectively, as previously described (Seeram et al. Clin Chim Acta. 348 (2004), p. 63). Linear calibration curves were constructed using a spiked internal standard method with EA or UA using plasma or liver tissues collected from control mice as described previously (Seeram et al. Clin Chim Acta. 348 (2004), p. 63). Accuracy values ranged from 91-108% for the quality control samples containing the EA or UA standard.

[11] = Homo sapiens, DU-145, 48 h exposure
[12] = UA 0.3 mg/mouse/dose intraperitoneal

| SMILES | IC50 [1] [µM] | IC50 [3] [µM] | IC50 ([1]; Homo sapiens, 22Rv1, 48 h) [µM] | IC50 [2, 11] [µM] | IC50 ([4]; Homo sapiens) [µM] | IC50 ([5]; Homo sapiens) [µM] | IC50 ([6]; Homo sapiens) [µM] | IC50 (LNCaP cells) [µM] | IC50 (DU145 cells; mean ± SE) [µM] | IC50 (22Rv1 cells) [µM] | anti-proliferative activity, rank order [7] | anti-proliferative activity, rank order [8] | anti-proliferative activity, rank order [9] | also measured |
| --- | --- | --- | --- | --- | --- | --- | --- | --- | --- | --- | --- | --- | --- | --- |
| O=C(O)c1cc(O)c(O)c(O)c1-c1c(O)c(O)c2oc(=O)c3c(-c4c(C(=O)O)cc(O)c(O)c4O)c(O)c(O)c4oc(=O)c1c2c43 [Gallagic acid] | 166 | 82.7 | – | – | – | – | – | – | – | – | – | – | – | IC50 ([2]; 48 h exposure): 198 µM; IC50 [4]: 71.4 µM; IC50 [5]: 82.4 µM; IC50 [6]: 83.6 µM |
| COc1ccc2c(c1)c(=O)oc1cc(O)ccc12 [8-methyl-Urolithin A, 3-hydroxy-8-methoxyl-6H-dibenzo[b,d]pyran-6-one] | – | 586 | 127 | 466 | 206 | 151 | 526 | – | – | – | urolithin A is the most active, then ellagic acid, urolithin B and methyl urolithin A | urolithin A is the most active, then ellagic acid, urolithin B and methyl urolithin A | urolithin A is the most active, then ellagic acid, urolithin B and methyl urolithin A | – |
| O=c1oc2c(O)c(O)cc3c(=O)oc4c(O)c(O)cc1c4c23 [Ellagic acid, reference compound] | – | 1.7 | 41.7 | 96 | 20.5 | 82.6 | 83.6 | – | – | – | urolithin A is the most active, then ellagic acid, urolithin B and methyl urolithin A | urolithin A is the most active, then ellagic acid, urolithin B and methyl urolithin A | urolithin A is the most active, then ellagic acid, urolithin B and methyl urolithin A | IC50 (LNCaP cells; Homo sapiens): 62.4 ± 4.2 µM; IC50 (LNCaP-AR cells; Homo sapiens): 78.7 ± 3.2 µM; IC50 (DU145 cells; Homo sapiens, DU-145, mean ± SE): 74.3 ± 5.2 µM; IC50 (22Rv1 cells; Homo sapiens): 109 ± 16.6 µM |
| O=C(O)c1cc(O)c(O)c(O)c1 [Gallic acid] | 18.5 | 73.5 | 18.6 | 29.4 | 32.3 | 29.2 | 111 | – | – | – | – | – | – | – |

Further lines, with some results ahead:

| IC50 [1] [µM] | IC50 [3] [µM] | IC50 ([1]; Homo sapiens, 22Rv1, 48 h) [µM] | IC50 [2, 11] [µM] | IC50 ([4]; Homo sapiens) [µM] | IC50 ([5]; Homo sapiens) [µM] | IC50 ([6]; Homo sapiens) [µM] | IC50 (LNCaP cells) [µM] | IC50 (DU145 cells; mean ± SE) [µM] | IC50 (22Rv1 cells) [µM] | SMILES | anti-proliferative activity, rank order [7] | anti-proliferative activity, rank order [8] | anti-proliferative activity, rank order [9] | also measured |
| --- | --- | --- | --- | --- | --- | --- | --- | --- | --- | --- | --- | --- | --- | --- |
| – | – | – | – | – | – | – | 31.3 ± 0.5 | 49.8 ± 3.9 | 47.8 ± 3.2 | O=c1oc2cc(O)ccc2c2ccc(O)cc12 [UA, 3,8-dihydroxy-6H-benzo[b,d]chromen-6-one] | most active | most active | most active | UA and UA-conjugate levels in plasma at 24 h [10, 12]: < 3 ng/mL; UA and UA-conjugate levels in tissues at 24 h [10, 12]: < 5 ng/g; UA and UA-conjugate levels in plasma at 24 h ([10]; UA 0.3 mg/mouse/dose oral): < 3 ng/mL; UA and UA-conjugate levels in tissues at 24 h ([10]; UA 0.3 mg/mouse/dose oral): < 5 ng/g; time of peak concentration in prostate, colon and intestine ([10]; UA intraperitoneally): 2 h; tissue uptake ([10]; UA orally, prostate followed by small intestine and colon): highest concentrations in the prostate gland; IC50 (LNCaP-AR cells): 43.3 ± 2.8 µM |
| – | – | – | – | – | – | – | 71.4 ± 13.5 | 70.7 ± 13 | 85 ± 8.6 | COc1ccc2c(c1)oc(=O)c1cc(OC)ccc12 [dmUA] | – | – | – | – |

From patent US8648112B2, “Therapeutic uses of urolithins” (The Regents of the University of California, priority 2006, dated 2014)
